The results in this text go back to patent US12576097B2, “Anti-tumor effective component of Hedyotis diffusa, preparation method therefor and use thereof” (Guangdong New Ear Life Technology Co., Ltd., priority 2020, dated 2026).

The subject of assay [1] is human liver cancer Hep-G2 cells. Put plainly: Inhibition rate on human liver cancer Hep-G2 cells (CCK-8). In kind it is cell-based. The following applies: 24 h; for inhibition rate: 3 mg/mL drug solutions. As to the method: A cryopreservation tube containing liver cancer Hep-G2 cells was taken out from a liquid nitrogen tank, quickly placed in a water bath at 38-39° C., and continuously shaken to be fully thawed within 1 min. The cryopreservation tube was centrifuged at 800 r/min for 9 min, and sprayed with 75% alcohol on the outside thereof, and then put into a ultra-clean table. The resulting supernatant was sucked and discarded. 1 ml of DMEM complete medium was added, and a mixture of the cells and the DMEM complete medium was blown evenly, and then the cells were transferred to a 25 ml culture dish. 6-8 ml of DMEM complete medium was added, and a mixture of the cells and the DMEM complete medium was gently blown evenly, and put into a constant temperature incubator at 37° C. with 5% CO2.
The old medium in the item 2.1 was sucked out. 2 ml of PBS buffer solution was added, and the cells were washed by gently shaking the culture flask. The PBS buffer solution was sucked out to remove the loose, dead and senescent cells and their metabolic wastes, and the cells were washed for 2-3 times. 2 ml of trypsin was added, and the culture dish was gently shaken for 30 s. After the trypsin was sucked out, the culture dish was put into the incubator for full digestion for 3 min, and 2 ml of fresh DMEM complete culture was added. The cells were gently blown and dispersed into individual cells under a microscope, and then 6-8 ml of fresh DMEM complete medium was added and the cells were incubated in a constant temperature incubator.
2 mL trypsin was added into the cells cultured in the item 2.2 in the logarithmic growth phase and the cells were digested for 30 s. After the trypsin was sucked out, the culture dish was placed into the incubator for full digestion for 3 min, and 2 mL of fresh medium was added. The cells were gently blown to disperse the cells into individual cells under the microscope. 10 μL of cell suspension and 10 μL of 0.4% Trypan blue staining solution were mixed well to fully stain the cells. 10 μL of the stained cell suspension was added to a cell counting plate, and the number of cells was counted by a fully automatic cell counter. The cell suspension was diluted to 2×10^5 cells/mL with a DMEM complete medium. 100 μL of cell suspension was sucked with a multichannel pipette and seeded into a 96-well plate and incubated in a constant temperature incubator at 37° C. with 5% CO2 for 24 h.
30 mL of DMEM complete medium was accurately measured, 30 μL of DMSO was added, and uniform mixing was conducted to prepare 0.1% DMSO medium. […] The kaempferol solution and the methyl ester solution having the above concentrations were uniformly mixed to prepare drug solutions having the desired ratio based on the mass ratio of kaempferol to methyl ester being 1:1, 1:2, 1:3, 1:4, 1:5, 5:1, 4:1, 3:1 and 2:1, 400 μL of each drug solution. 1 mg/mL of 5-fluorouracil solution was diluted to a concentration of 800, 600, 400, 200, 100, 50, 25 μg/mL, respectively, 400 μL of each drug solution.
The old medium in the 96-well plate in the item 2.3 was sucked out, and 100 μL of PBS buffer solution was added to each well to remove the loose, dead and senescent cells and their metabolic wastes. After that, the PBS buffer solution was sucked out. 100 μL of the prepared drug solution was added to each well, 3 wells in parallel. A negative control was set up, in which an equal volume of DMEM complete medium containing 0.1 vol % DMSO was added to each well, 3 wells in parallel. A blank control was a DMEM complete medium containing 0.1 vol % DMSO free of cells, 3 wells in parallel. The cells were incubated for 24 h in a constant temperature incubator at 37° C. with 5% CO2.
The DMEM complete medium containing 0.1 vol % DMSO in the drug solutions and negative control in the 96-well plate in the item 2.5 were sucked out. […]

Assay [2] is described as follows: Spleen and thymus weight and blood count of S180 tumor-bearing mice. In kind it is in vivo, ICR mice. The following applies: for relative spleen weight compared with model group: FIG. 5; for relative thymus weight compared with model group: FIG. 6; for number of leukocytes compared with model group: FIG. 7; for percentage of lymphocytes compared with model group: FIG. 8. As for the experimental part: (§1) 168 ICR class II male mice with a weight of 18-22 g were used. The mice were kept under the conditions of the item 2.2 for adaptive feeding for four days before the experiment. After four days, the mice were weighed and their autonomy was measured. […] Each mouse was inoculated with S180 tumor according to the method in the item 2.3, and the drug was administered by gavage after inoculation.
(§2) A appropriate amount of test samples were weighed precisely, and prepared into test sample solutions having the desired concentrations by using a 5 vol % ethanol aqueous solution as a solvent, i.e.: the effective parts of 5 mg/kg, 10 mg/kg and 20 mg/kg correspond to the test sample solutions of the groups of the effective part 5, effective part 10, and effective part 20, respectively; E-6-O-(p-coumaroyl)scandoside methyl ester of 2.5 mg/kg, 5 mg/kg, 10 mg/kg, and 20 mg/kg correspond to the test sample solutions of the groups of methyl ester 2.5, methyl ester 5, methyl ester 10 and methyl ester 20, respectively; kaempferol-3-O-[2-O-(6-O-E-feruloyl)-β-D-glucopyranosyl]-β-D-galactopyranose of 2.5 mg/kg, 5 mg/kg, 10 mg/kg and 20 mg/kg correspond to the test sample solutions of the groups of kaempferol 2.5, kaempferol 5, kaempferol 10 and kaempferol 20, respectively. […] Each mouse was administered by gavage at a dose of 0.2 ml/10 g. During the administration period, the mice were fed at 3 g/mouse and ingested water and food freely. All mice were continuously administered for 9 days, and sacrificed by decapitation on day 10. Blood, tumor, liver, spleen, and thymus of mice were collected. The blood collected was placed in a low temperature environment and sent out for blood check. The weight of the tumor, liver, spleen, and thymus and the size of the tumor were recorded.
(§3) The recorded results were expressed as mean plus or minus standard deviation (X±SD), and the data were analyzed by using statistical software SPSS 11.5 software.

Assay [3] deals with Solid tumor cell line S180. As to the kind of experiment: In-vivo anti-tumor experiment after S180 tumor inoculation in mice. More on the design: species or system ICR mice. The following applies: 9 days; for relative tumor weight mean ± SD: S180 tumor-bearing ICR mice; for inhibition rate: vs model group. As to the method:
Solid tumor cell line S180 cryopreservation tube were taken out from a liquid nitrogen tank and quickly placed into water at 37° C. with occasional shaking. After cryopreserved cell mother liquor was thawed, the lid edge of the cryopreservation tube was wiped with an alcohol swab. The thawed cell liquor was injected intraperitoneally into the peritoneal cavities of ICR mice by a syringe. The mice were kept at room temperature of 25±5° C., humidity of 60±10%, natural light, and free to ingest food and water. After about one week, ascites in the peritoneal cavities of the ICR mice were sucked by a syringe and injected into the peritoneal cavities of new ICR mice at a dose of 0.5 ml per mouse for passage for standby application.
ICR class II mice, weighing about 18-22 g. Feeding conditions: room temperature of 25±5° C., humidity of 60±10%, natural light, free intake of water, and all mice were kept in the feeding environment for adaptive feeding for four days, fasted for 12 h before the experiment, free intake of water.
(§4) The experimental instruments were placed in a clean table and sterilized for about 30 min by turning on a UV lamp. The mice that were injected with ascites (about one week) were sacrificed by cervical dislocation, and abdomens of the mice were wiped with an alcohol swab. A 20 ml syringe was selected to suck the ascites (milky white is preferred) from the mice. The sucked ascites were placed in a sterile vial, and the vial was placed in a small box with ice. A certain amount of ascites was sucked onto a counting plate and placed under a microscope for counting, and the number of the cells was 10^7 as a base for tumor inoculation (1:2) and passage (1:5).
(§5) The adaptively fed ICR class II male mice were taken, and wiped with an alcohol swab on the armpit areas of the right forelimbs. The axillary cavities of the right forelimbs of the mice were inoculated with diluted mice ascite cell (10^7 cells) suspension at 0.2 ml per mouse. After tumor inoculation, the mice were fed and watered freely. One hour later, the drug was administered by gavage.
as §1, §2

Assay [4] concerns Solid tumor cell line S180. As to the kind of experiment: In-vivo anti-tumor experiment of E-6-O-(p-coumaroyl)scandoside methyl ester and its metabolite p-coumaric acid (S180 tumor). More on the design: species or system ICR mice. The following applies: 10 mg/kg by gavage, 9 days. As for the experimental part: as §4, §5
30 ICR class II male mice with a weight of 18-22 g were used. The mice were adaptively fed for four days under the conditions of the item 2.2 before the experiment. After four days, the mice were weighed and their autonomy was measured. The ICR mice were randomly divided into three groups, namely: a model group, methyl ester 10, p-coumaric acid 10, 10 mice in each group. Each mouse was inoculated with S180 tumor according to the method of the item 2.3, and the drug was administered by gavage after inoculation.
The appropriate amount of test samples were weighed precisely and prepared into test sample solutions having the desired concentrations by using a 5 vol % ethanol aqueous solution as a solvent, i.e.: E-6-O-(p-coumaroyl)scandoside methyl ester of 10 mg/kg; p-coumaric acid of 10 mg/kg. […] The blank group was given a solvent, the positive drug control group was given the cyclophosphamide solution, and the other groups were given the corresponding drugs and doses. Each mouse was administered by gavage at a dose of 0.2 ml/10 g. The mice were fed at 3 g/mouse and ingested water and food freely during the administration period. All mice were continuously administered for 9 days and sacrificed by decapitation on day 10. Blood, tumor, liver, spleen and thymus of the mice were collected. The blood obtained was placed in a low-temperature environment and sent out for blood check. The weight of the tumor, liver, spleen and thymus and the size of the tumor were recorded.
as §3

“Also recorded” adds a separate entry of the source. Marks after values point to notes of the source that are not given here.

`O=c1[nH]cc(F)c(=O)[nH]1` [5-Fluorouracil, 5-fluorouracil]: the inhibition at 25 µg/mL in assay [1] (Homo sapiens, HepG2, 25 μg/mL) turned out to be 7.34%. In addition, the inhibition at 50 µg/mL in assay [1] (Homo sapiens, HepG2, 50 μg/mL) was determined as 11.3%. Besides, at 100 µg/mL the inhibition in assay [1] (Homo sapiens, HepG2, 100 μg/mL) was 13.9%. This molecule also yielded an inhibition at 200 µg/mL in assay [1] (Homo sapiens, HepG2, 200 μg/mL) of 17.8%. Moreover, the inhibition at 400 µg/mL in assay [1] (Homo sapiens, HepG2, 400 μg/mL) stood at 39.5%. Moreover, 600 µg/mL produced 56.1% inhibition in assay [1] (Homo sapiens, HepG2, 600 μg/mL). The molecule also yielded an inhibition at 800 µg/mL in assay [1] (Homo sapiens, HepG2, 800 μg/mL) of 61.5%. In assay [1] (Homo sapiens, HepG2, 1000 μg/mL), this molecule registered an inhibition at 1000 µg/mL of 68%.

Regarding `O=P1(N(CCCl)CCCl)NCCCO1` (stereo not shown) [Positive control, Cyclophosphamide, reference compound], in assay [2] (20 mg/kg), the “number of erythrocytes compared with model group” value is “lower”, the “relative spleen weight compared with model group” value is on record as “decrease; also recorded: lower”, the “relative thymus weight compared with model group” value is “increase” and the “number of leukocytes compared with model group” value is given as “significant decrease; also recorded: lower”. In addition, in assay [2] (20 mg/kg), the “percentage of lymphocytes compared with model group” value is “increase”. In assay [3] (20 mg/kg by gavage), the “relative tumor weight mean ± SD” value was 3.56 ± 0.77* 10^−2 and the inhibition rate was determined as 57.19%.

Take `O=C(O)/C=C/c1ccc(O)cc1` [p-coumaric acid, reference compound]: the “relative tumor weight mean ± SD” value in assay [4] (S180 tumor-bearing ICR mice) was 6.07 ± 2.91* 10^−2. Further, the inhibition rate in assay [4] (vs model group) was 17.20%.

With “kaempferol-3-O-[2-O-(6-O-E-feruloyl)-β-D-glucopyranosyl]-β-D-galactopyranose”, the inhibition rate in assay [1] (1st measurement) turned out to be 18.7%; in assay [1] (2nd measurement), 12.07%; in assay [1] (3rd measurement), 19.28%; in assay [3] (2.5 mg/kg by gavage), 15.76%; in assay [3] (5 mg/kg by gavage), 45.96%; in assay [3] (5 mg/kg by gavage, listed as kaempferol-3-O-[2-O-(6-O-E-feruloyl)-β-D-glucopyranosyl]-β-D-galactopyranose), 45.96%. Further, the inhibition rate in assay [3] (10 mg/kg by gavage) was determined as 27.36%; in assay [3] (20 mg/kg by gavage), 32.75%. Further, the “relative spleen weight compared with model group” value in assay [2] (5 mg/kg) was “increase”. Further, in assay [2] (5 mg/kg), the “relative thymus weight compared with model group” value is “increase”. The “number of leukocytes compared with model group” value in assay [2] (5 mg/kg) was “significant decrease”. In addition, the “percentage of lymphocytes compared with model group” value in assay [2] (5 mg/kg) was “increase”. In addition, the “relative tumor weight mean ± SD” value in assay [3] (2.5 mg/kg by gavage) is listed as 7.01 ± 1.56 10^−2; in assay [3] (5 mg/kg by gavage) it was 4.49 ± 1.95 10^−2; in assay [3] (10 mg/kg by gavage), 6.04 ± 2.78 10^−2; in assay [3] (20 mg/kg by gavage), 5.59 ± 1.96 10^−2. Moreover, the “best dose for tumor inhibition” value in assay [3] (dose with the highest inhibition rate, gavage) is given as 5 mg/kg.

Usually inhibition stands for the share of the control response that was lost under treatment.
